The source of these data is article PMC12387383, “Screening and Assessment of Hypoglycemic Active Peptide from Natural Edible Pigment Phycobiliprotein Based on Molecular Docking, Network Pharmacology, Enzyme Inhibition Assay Analyses, and Cell Experiments” (Marine Drugs, 2025).

Peptide text beside a SMILES is read from it.

In one test the target is T1, DPP-IV (Homo sapiens, UniProt P27487).
T1 construct: purchased Elabscience Biotechnology Co., Ltd. E-BC-D007
As to the kind of experiment: DPP-IV inhibitor screening kit (fluorescence). Format: biochemical. Conditions: mean ± SD, n = 3. The protocol:
The hypoglycemic active peptides were synthesized via solid-phase synthesis by Shanghai science peptide Co., Ltd. (Shanghai, China). The purity and molecular weight of the synthesized peptides were confirmed using HPLC-MS. The α-glucosidase inhibitory activity was assessed a modified version of previously reported methods by adding 100 μL of p-NPG (1 mM) after 50 μL of peptide solution (0.125–2.0 mg/mL), and 50 μL of α-glucosidase (1 u/mL) were incubated at 37 °C for 15 min. Absorbance was measured at 405 nm after the reaction was stopped by adding 100 μL of […] after another 30 min of incubation. Similarly, α-amylase inhibitory activity was determined based on established protocols with minor modifications. Briefly, 100 μL of peptide solution (0.125–2.0 mg/mL) was mixed with 100 μL of α-amylase (1 U/mL) and incubated at 37 °C for 10 min. Then, 200 μL of pretreated soluble starch solution (2%, denatured at 95 °C for 8 min) was added, and the mixture was further incubated at 37 °C for 20 min. The reaction was stopped by adding 200 μL of DNS reagent (1% DNS; 12% sodium potassium tartrate in 0.4 M Na2CO3), followed by boiling at 100 °C for 15 min. After cooling, 200 μL of each reaction mixture was transferred to a 96-well plate, and absorbance was measured at 540 nm. DPP-IV inhibitory activity was evaluated using a DPP-IV inhibitor screening kit (Elabscience) following the manufacturer’s instructions with slight modifications. Peptide solutions were prepared at gradient concentrations (0.125, 0.25, 0.5, 1, 1.5, 2, 4, and 10 mg/mL). In a 96-well plate, 20 μL of enzyme solution and 30 μL of peptide sample were added to each well, mixed briefly, and incubated at 37 °C for 10 min. Then, 170 μL of reaction working solution was added, followed by a second incubation at 37 °C for 30 min. Fluorescence intensity was measured at an excitation wavelength of 360 nm and an emission wavelength of 460 nm. The IC50 values were determined by fitting dose–response curves using nonlinear regression analysis with a variable slope in GraphPad Prism 9. All IC50 results are expressed as mean ± SD based on three independent experiments.

Test [1] deals with IR-HepG2 cells. In words: Glucose consumption in IR-HepG2 cells. Type of test: cell-based. Conditions: 2 mmol/L, IR-HepG2, compared to baseline, positive control. The protocol: HepG2 cells were maintained in Dulbecco’s Modified Eagle Medium (DMEM) supplemented with 10% fetal bovine serum and 1% penicillin–streptomycin under controlled conditions at 37 °C in a humidified atmosphere containing 5% CO2 for 24 h.
(§1) The IR-HepG2 cellular model was established as described in Section 3.6. […] Cell viability was evaluated in all groups to determine appropriate peptide concentrations and incubation times based on the criteria of non-cytotoxicity and maximal glucose consumption.
(§2) Glucose consumption was measured using a commercial glucose assay kit according to the manufacturer’s protocol. Intracellular glycogen content was quantified with a glycogen detection kit, while hexokinase (HK) and pyruvate kinase (PK) enzyme activities were determined using specific assay kits, following the provided instructions.

For test [2], the system named is IR-HepG2 cells. In words: Intracellular glycogen content in IR-HepG2 cells. Format: cell-based. Conditions: GR-5, SA-6, VF-6 at 2 mmol/L, IR-7 at 1 mmol/L. The protocol: as §1, §2
In test [3] the test system is hexokinase (HK) in IR-HepG2 cells. As to the kind of experiment: Hexokinase activity in IR-HepG2 cells. Type of test: cell-based. Conditions: IR-HepG2, vs model control; GR-5, SA-6, VF-6 at 2 mmol/L, IR-7 at 1 mmol/L. The procedure:
as §1, §2

The subject of test [4] is pyruvate kinase (PK) in IR-HepG2 cells. As to the kind of experiment: Pyruvate kinase activity in IR-HepG2 cells. Type of test: cell-based. Conditions: IR-HepG2, vs model control; GR-5, SA-6, VF-6 at 2 mmol/L, IR-7 at 1 mmol/L. The procedure: as §1, §2
The next test has as its target T2, α-amylase (Sus scrofa, UniProt P00690).
T2 sequence (P00690 16-511): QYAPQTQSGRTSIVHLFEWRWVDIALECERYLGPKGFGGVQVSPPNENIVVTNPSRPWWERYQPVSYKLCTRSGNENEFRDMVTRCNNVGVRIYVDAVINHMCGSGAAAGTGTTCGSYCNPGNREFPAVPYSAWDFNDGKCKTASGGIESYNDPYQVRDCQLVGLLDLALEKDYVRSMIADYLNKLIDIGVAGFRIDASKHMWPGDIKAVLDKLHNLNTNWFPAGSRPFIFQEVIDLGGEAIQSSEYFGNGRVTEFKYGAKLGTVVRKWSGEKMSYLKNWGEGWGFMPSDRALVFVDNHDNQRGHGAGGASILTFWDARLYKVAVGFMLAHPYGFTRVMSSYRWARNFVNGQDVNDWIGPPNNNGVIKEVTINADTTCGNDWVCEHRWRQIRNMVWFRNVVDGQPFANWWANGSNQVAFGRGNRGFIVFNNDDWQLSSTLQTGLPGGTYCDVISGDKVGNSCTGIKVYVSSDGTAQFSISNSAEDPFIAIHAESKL
Conditions: literature value; cited from earlier work.

T1 sequence (P27487 whole entry, species assumed): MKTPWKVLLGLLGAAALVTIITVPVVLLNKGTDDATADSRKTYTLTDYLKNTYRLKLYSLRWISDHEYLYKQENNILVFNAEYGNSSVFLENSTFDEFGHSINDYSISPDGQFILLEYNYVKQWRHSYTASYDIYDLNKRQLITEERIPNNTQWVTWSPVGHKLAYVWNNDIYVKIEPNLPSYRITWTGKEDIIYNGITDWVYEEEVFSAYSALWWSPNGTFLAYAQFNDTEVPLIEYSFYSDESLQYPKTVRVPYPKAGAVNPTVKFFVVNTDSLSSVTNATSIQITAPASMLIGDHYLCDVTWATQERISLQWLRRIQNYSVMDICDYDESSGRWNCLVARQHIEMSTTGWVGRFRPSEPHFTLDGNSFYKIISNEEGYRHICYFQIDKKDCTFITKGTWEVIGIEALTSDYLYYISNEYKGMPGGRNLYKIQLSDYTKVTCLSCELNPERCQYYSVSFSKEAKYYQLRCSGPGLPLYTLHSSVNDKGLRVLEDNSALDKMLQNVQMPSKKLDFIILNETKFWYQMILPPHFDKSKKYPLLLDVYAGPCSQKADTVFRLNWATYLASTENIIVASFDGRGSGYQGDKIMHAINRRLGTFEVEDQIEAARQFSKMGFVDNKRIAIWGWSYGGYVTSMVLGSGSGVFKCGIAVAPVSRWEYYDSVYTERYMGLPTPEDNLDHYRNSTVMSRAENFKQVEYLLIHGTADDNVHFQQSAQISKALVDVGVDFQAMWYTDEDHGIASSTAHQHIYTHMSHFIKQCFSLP

Broadly, the IC50 is the point on the concentration scale where inhibition reaches its midpoint. A low value points to greater potency in that assay. `CC(C)C[C@H](NC(=O)[C@H](Cc1ccc(O)cc1)NC(=O)[C@H](Cc1ccc(O)cc1)NC(=O)CN)C(=O)N[C@@H](CCCNC(=N)N)C(=O)O` [GR-5, Gly-Tyr-Tyr-Leu-Arg] (H-GYYLR-OH; N-terminus and C-terminus assumed) gave an IC50 against DPP-IV of 6.97 mM.

Regarding `CC[C@H](C)[C@H](N)C(=O)N[C@@H](C)C(=O)N[C@@H](CO)C(=O)N[C@@H](Cc1ccc(O)cc1)C(=O)N[C@@H](Cc1ccccc1)C(=O)N[C@@H](CC(=O)O)C(=O)N[C@@H](CCCNC(=N)N)C(=O)O` [IR-7, Ile-Ala-Ser-Tyr-Phe-Asp-Arg] (H-IASYFDR-OH; N-terminus and C-terminus assumed), the IC50 against DPP-IV is 1.04 mM.

On to `C[C@H](NC(=O)[C@H](CCCNC(=N)N)NC(=O)[C@H](CC(=O)O)NC(=O)[C@H](Cc1ccccc1)NC(=O)[C@H](Cc1ccc(O)cc1)NC(=O)[C@@H](N)CO)C(=O)O` [SA-6, Ser-Tyr-Phe-Asp-Arg-Ala] (H-SYFDRA-OH; N-terminus and C-terminus assumed), for which the half-inhibitory concentration (IC50) against DPP-IV is 11 mM.

`CC(C)[C@H](N)C(=O)N[C@@H](C)C(=O)N[C@@H](Cc1ccccc1)C(=O)NCC(=O)N[C@@H](CCCNC(=N)N)C(=O)N[C@@H](Cc1ccccc1)C(=O)O` [VF-6, Val-Ala-Phe-Gly-Arg-Phe] (H-VAFGRF-OH; N-terminus and C-terminus assumed) had an IC50 at DPP-IV of 1.36 mM.

`CN(C)C(=N)N=C(N)N` [metformin]: in the test on IR-HepG2 cells [1], the “increase in glucose consumption” value worked out at 105%. For the same compound, in the test with IR-HepG2 cells [2], the “increase in glycogen content” value was determined as 24.2%. Also, the “increase in HK activity” value in test [3] is reported as 54.9%. In addition, the “increase in PK activity” value in test [4] worked out at 21.1%.

FPSPPLVA: the “α-amylase IC50” value with α-amylase is 920 ± 270 µg/mL.

In the case of GPPMPPPPLP, the “α-amylase IC50” value with α-amylase was 2020 ± 200 µg/mL.
